From ChEMBL document CHEMBL1127995, “Synthesis and structure-activity relationships of pyrrolidine-modified analogs of the potent cholinergic channel activator, ABT 418” (Bioorg Med Chem Lett, 1994)
pKi: −log10 of the molar value.

Key:
[1] = target: Neuronal acetylcholine receptor; alpha4/beta2 (Rattus norvegicus, UniProt P09483+P12390); assay: Binding affinity for Nicotinic acetylcholine receptor alpha4-beta2 by displacement of [3H](-)-cytisine from whole rat brain membranes; type: cell membranes, Membrane
[2] = In vitro half life was determined; type: ADME

Chain of Neuronal acetylcholine receptor; alpha4/beta2 (P09483 whole entry): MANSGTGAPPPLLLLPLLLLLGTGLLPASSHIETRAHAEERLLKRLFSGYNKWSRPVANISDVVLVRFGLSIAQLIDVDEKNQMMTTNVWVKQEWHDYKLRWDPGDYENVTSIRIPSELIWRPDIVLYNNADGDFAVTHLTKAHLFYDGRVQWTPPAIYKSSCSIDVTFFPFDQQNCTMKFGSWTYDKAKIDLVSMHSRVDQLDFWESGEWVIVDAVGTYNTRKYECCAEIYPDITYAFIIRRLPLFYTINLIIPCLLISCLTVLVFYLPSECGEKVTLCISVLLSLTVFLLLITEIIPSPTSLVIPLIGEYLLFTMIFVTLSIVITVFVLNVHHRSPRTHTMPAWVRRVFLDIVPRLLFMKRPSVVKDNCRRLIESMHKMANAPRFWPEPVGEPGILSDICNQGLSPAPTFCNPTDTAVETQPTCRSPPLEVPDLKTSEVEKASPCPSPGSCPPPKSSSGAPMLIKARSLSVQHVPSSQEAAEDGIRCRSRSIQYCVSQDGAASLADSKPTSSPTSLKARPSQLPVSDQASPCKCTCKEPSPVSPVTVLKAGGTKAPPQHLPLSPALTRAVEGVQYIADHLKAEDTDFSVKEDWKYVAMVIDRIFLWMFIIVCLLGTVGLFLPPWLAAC
Chain of Neuronal acetylcholine receptor; alpha4/beta2 (P12390 whole entry): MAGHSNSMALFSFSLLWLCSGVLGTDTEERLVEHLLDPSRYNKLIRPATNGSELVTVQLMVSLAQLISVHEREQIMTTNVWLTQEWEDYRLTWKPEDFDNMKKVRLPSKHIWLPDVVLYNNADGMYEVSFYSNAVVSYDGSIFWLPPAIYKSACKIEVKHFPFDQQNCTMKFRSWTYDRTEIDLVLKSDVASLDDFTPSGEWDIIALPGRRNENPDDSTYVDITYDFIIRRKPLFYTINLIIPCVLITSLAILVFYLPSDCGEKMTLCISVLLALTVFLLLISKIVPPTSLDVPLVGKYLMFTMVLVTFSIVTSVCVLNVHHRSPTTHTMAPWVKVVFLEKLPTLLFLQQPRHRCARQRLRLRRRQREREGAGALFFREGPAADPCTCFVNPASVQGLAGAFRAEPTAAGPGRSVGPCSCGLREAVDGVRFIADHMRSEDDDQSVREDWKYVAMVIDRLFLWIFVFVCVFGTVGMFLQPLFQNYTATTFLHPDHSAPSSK

Cc1cc([C@@H]2CC[C@H](C)N2C)on1
pKi [1]: 5.30 | half-life [2]: 48.3 min

Cc1cc([C@@H]2CCCN2C)on1 [ABT-418]
pKi [1]: 8.52 | half-life [2]: 47.3 min

Cc1cc([C@@H]2CC[C@H](c3ccccc3)N2C)on1
pKi [1]: < 5.00

Cc1cc([C@@H]2C(COC(=S)Oc3ccccc3)CCN2C)on1 (single isomer, unassigned)
pKi [1]: 6.08

Cc1cc([C@@H]2[C@@H](CO)CCN2C)on1
pKi [1]: < 5.00

COC(=O)CC1CC[C@@H](c2cc(C)no2)N1C (some centres undefined)
pKi [1]: 5.46

CCCC[C@H]1CC[C@@H](c2cc(C)no2)N1C
pKi [1]: 5.44

Cc1cc([C@@H]2C(C)CCN2C)on1 (single isomer, unassigned)
pKi [1]: < 5.00

CCCC[C@@H]1CC[C@@H](c2cc(C)no2)N1C
pKi [1]: 5.99

Cc1cc([C@@H]2CC[C@@H](C)N2C)on1
pKi [1]: 7.15 | half-life [2]: 26 min

Cc1cc([C@@H]2CC[C@@H](c3ccccc3)N2C)on1
pKi [1]: 5.10
